Values of other authors, collected in the PKSmart pharmacokinetics tables (Seal et al. 2025).

Assay: not given per row; by the article one of three: Lombardo et al. 2013, J Clin Pharmacol 53:178, doi 10.1177/0091270012440282; 'New Drugs at FDA', novel drug approvals for 2021 and 2022 (the article's reference 43); Yap, Li, Chen 2006, J Mol Graph Model 24:383, doi 10.1016
Conditions: human; in vivo

Compound | clearance [mL/min/kg] | half-life [h] | Vd [L/kg]
NC(=O)N1c2ccccc2C=Cc2ccccc21 | 1.11 | – | –
NC(=O)c1cc[n+](CC2=C(C(=O)O)N3C(=O)C(NC(=O)C(c4ccccc4)S(=O)(=O)[O-])[C@@H]3SC2)cc1 (stereo partly drawn) | 1.92 | – | –
CC[C@]1(C)CC(=O)NC1=O | 0.19 | – | –
CON=C(C(=O)NC1C(=O)N2C(C(=O)O)=CCS[C@H]12)c1csc(=N)[nH]1 (stereo partly drawn) | 1.79 | – | –
CN[C@@]1(c2ccccc2Cl)CCCCC1=O | 16.3 | – | –
O=C(O)CCC(NC(=O)NC(CCCCNC(=O)c1ccc([18F])nc1)C(=O)O)C(=O)O (stereo not drawn) | – | 3.47 | –
CCOc1cc(N)c(Cl)cc1C(=O)NC[C@H]1CN(Cc2ccc(F)cc2)CCO1 | 16.2 | – | –
CNCc1cc(-c2ccccc2F)n(S(=O)(=O)c2cccnc2)c1 | 22.6 | 6.8 | 13
O[C@@H](c1cc(C(F)(F)F)nc2c(C(F)(F)F)cccc12)[C@@H]1CCCCN1 | 0.41 | – | –
Nc1nc2c(ncn2CCC(CO)CO)c(=O)[nH]1 | 9.36 | – | –
Cc1ccccc1OC[C@@H](O)CNCCOc1ccc(C(N)=O)cc1 | 10.8 | – | –
O=C(NC(C(=O)NC1C(=O)N2C(C(=O)O)C(=C[n+]3ccc(CCS(=O)(=O)[O-])cc3)CSC12)c1ccccc1)c1nc[nH]c1C(=O)O (stereo not drawn) | 1.7 | – | 0.21
C[C@@H]1[C@H](c2c(F)ccc(F)c2F)CC(NC(=O)c2cnc3c(c2)C[C@@]2(C3)C(=O)Nc3ncccc32)C(=O)N1CC(F)(F)F (stereo partly drawn) | 5.28 | 11 | 4.87
CC(CO)(CO)NCc1cc2c3ccccc3ccc2c2ccccc12 | 8.44 | – | –
O=C(O)CN1C(=O)C(NC(CCc2ccccc2)C(=O)O)CCc2ccccc21 (stereo not drawn) | 0.35 | – | –
CC(C)(Oc1ccc(CCNC(=O)c2ccc(Cl)cc2)cc1)C(=O)O | 1.67 | – | –
CS(=O)(=O)c1ccc([C@H](O)[C@@H](CO)NC(=O)C(Cl)Cl)cc1 | 2.62 | – | –
CN=C1CN(O)C(c2ccccc2)=c2cc(Cl)ccc2=N1 | – | – | 0.25
C[C@@H](c1cc2ccccc2s1)N(O)C(N)=O | 7.14 | – | –
C[C@]12CC[C@@H]3c4ccc(O)cc4CC[C@H]3[C@@H]1[C@@H](O)[C@@H](O)[C@@H]2O | – | 27 | –
C[C@H](NCCc1ccc(O)cc1)[C@H](O)c1ccc(O)cc1 | 8.67 | – | –
Oc1ccc2c3c1O[C@@H]1[C@@H](O)CC[C@]4(O)[C@H](C2)N(CC2CCC2)CC[C@@]314 | 29.7 | – | –
COc1cc2nccc(Oc3ccc(NC(=O)Nc4cc(C)on4)c(Cl)c3)c2cc1OC | 0.21 | 111 | 2.05
CN1C(=O)NC(=O)[C@@](C)(C2=CCCCC2)C1=O | 3.6 | – | –

Compound | clearance [mL/min/kg] | half-life [h] | Vd [L/kg]
C[C@@H](O)C1C(=O)N2C(C(=O)O)=C(S[C@@H]3CNC(C(=O)N(C)C)C3)[C@H](C)[C@@H]12 (stereo partly drawn) | 3.49 | – | –
O=C1CN2Cc3c(ccc(Cl)c3Cl)N=C2N1 | 2.14 | – | –
C[C@@H](O)C1C(=O)N2C(C(=O)O)=C(S[C@H]3CNC(C(=O)Nc4cccc(C(=O)O)c4)C3)[C@H](C)[C@@H]12 (stereo partly drawn) | 0.4 | – | –
NC(=O)c1ccc2c(c1O)[C@]13CCN(CC4CC4)[C@H](C2)[C@]1(O)CCC(=O)C3 | 11.1 | 9 | –
O=C(O)CN(CCN(CC(=O)O)CC(=O)O)CC(=O)O | 1.09 | – | –
CO[C@]1(NC(=O)Cc2cccs2)C(=O)N2C(C(=O)O)=C(COC(N)=O)CS[C@@H]21 | 2.89 | – | –
Oc1ccc2c(c1)C13CCCC[C@@]1(O)[C@H](C2)N(CC1CCC1)CC3 | 40 | – | –
C1=C/COCc2cc(ccc2OCCN2CCCC2)Nc2nccc(n2)-c2cccc(c2)COC/1 | 0.58 | 27.7 | 3.82
NC(=O)c1ncn([C@H]2O[C@H](CO)[C@@H](O)[C@@H]2O)c1N | 41.7 | – | –
CC1(C)S[C@H]2C(NC(=O)C(NC(=O)N3CCNC3=O)c3ccccc3)C(=O)N2C1C(=O)O (stereo partly drawn) | 2.52 | – | –
CC(=O)OCC(CCn1cnc2cnc(N)nc21)COC(C)=O | 8 | – | –
CNCC[C@H](Oc1ccccc1C)c1ccccc1 | 3.63 | – | –
C[C@H](CN1CCN(CCOCCO)CC1)CN1c2ccccc2Sc2ccccc21 | 17.5 | – | –
[2H]C([2H])([2H])NC(=O)c1nnc(NC(=O)C2CC2)cc1Nc1cccc(-c2ncn(C)n2)c1OC | 0.68 | 10 | 2.33
C[C@]12C=CC(=O)N[C@@H]1CC[C@@H]1[C@H]2CC[C@]2(C)C(C(=O)Nc3cc(C(F)(F)F)ccc3C(F)(F)F)CC[C@@H]12 (stereo partly drawn) | 0.14 | – | –
CN(C)CCC(c1ccccc1)c1ccccn1 (stereo not drawn) | 2.14 | – | –
C[C@@H](CCc1ccc(O)cc1)NCCc1ccc(O)c(O)c1 | 59 | – | –
O=C(O)C1C[C@H](C2CCCCC2)CN1C(=O)C[P@](=O)(O)CCCCc1ccccc1 (stereo partly drawn) | 0.46 | – | –
CC(NC(CCc1ccccc1)C(=O)O)C(=O)N1C(C(=O)O)C[C@@H]2CCCC[C@@H]21 (stereo partly drawn) | 1.67 | – | –
OCC(O)CO | 3.55 | – | –
COc1ccc(OC)c(Cc2cnc3nc(N)nc(N)c3c2C)c1 | 2.21 | – | –
CN(C)CCOc1ccc(/C(=C(\CCCl)c2ccccc2)c2ccccc2)cc1 | 1.21 | – | –
CCCCCOC(=O)Nc1nc(=O)n([C@@H]2O[C@H](C)[C@@H](O)[C@H]2O)cc1F | 59.7 | – | –
CC(C)NC(=O)COc1cccc(-c2nc(Nc3ccc4[nH]ncc4c3)c3ccccc3n2)c1 | 2.73 | 19 | 3.07

Compound | clearance [mL/min/kg] | half-life [h] | Vd [L/kg]
CN1CCN(c2ccc(Nc3ncc4cc5n(c4n3)C3(CCCCC3)CNC5=O)nc2)CC1 | 41.7 | 14 | 18.8
COc1ccnc(C[S@@+](O)c2nc3cc(OC(F)F)ccc3[n-]2)c1OC | 2.57 | – | –
CCC[C@H](C)[C@@]1(CC)C(=O)N=C(S)NC1=O | 3.02 | – | –
CC1=C(/C=C/C(C)=C/C=C/C(C)=C/C(=O)Nc2ccc(O)cc2)C(C)(C)CCC1 | 23.5 | – | –
C[C@]12C=CC(=O)C=C1CC[C@H]1[C@@H]3C[C@@H](O)[C@](O)(C(=O)CO)[C@@]3(C)C[C@@H](O)[C@@]12F | 13.1 | – | –
CC1(C)C(=CC=C2CCCC(C=CC3=[N+](CCCCS(=O)(=O)O)c4ccc(S(=O)(=O)[O-])cc4C3(C)C)=C2Oc2ccc(CC(NC(=O)c3ccc(NCc4cnc5nc(N)[nH]c(=O)c5n4)cc3)C(=O)O)cc2)N(CCCCS(=O)(=O)O)c2ccc(S(=O)(=O)O)cc21 (stereo not drawn) | – | 0.44 | 0.29
C[C@]1(Cn2ccnn2)C(C(=O)O)N2C(=O)C[C@@H]2S1(=O)=O (stereo partly drawn) | 2.91 | – | –
COCc1c(-c2ccc(F)cc2)c(=CC[C@H](O)C[C@H](O)CC(=O)O)c(C(C)C)nc1=C(C)C | 2.98 | – | –
O=c1[nH]c(=O)n([C@@H]2CCCO2)cc1F | 0.98 | – | –
COC[C@H]1CN=C(c2ccccc2Cl)c2cc(Br)ccc2N1C | 11.1 | – | –
COc1ccc(C(=O)Nc2ccccc2CC[C@@H]2CCCCN2C)cc1 | 177 | – | –
NC(=O)c1cc[n+](COC[n+]2ccccc2C=NO)cc1 | 3.2 | – | –
CN[C@H](C)[C@H](O)c1ccccc1 | 7.33 | – | –
CN(C/C=C/C#CC(C)(C)C)Cc1cccc2ccccc12 | 17.9 | – | –
O=C(O)C1=C(CSc2nnnn2CS(=O)(=O)O)CS[C@H]2C(NC(=O)C(O)c3ccccc3)C(=O)N12 (stereo partly drawn) | 0.33 | – | –
COc1c(N2CCN[C@@H](C)C2)c(F)cc2c(=O)c(C(=O)O)cn(C3CC3)c12 | 2.85 | – | –
CON=C(C(=O)NC1C(=O)N2C(C(=O)O)=C(C)CS[C@@H]12)c1csc(N)n1 (stereo partly drawn) | 2 | – | –
C=c1c(N)c(O)c2c(c1O)N1C[C@@H]3N[C@@H]3[C@@]1(OC)C=2COC(N)=O | 8.23 | – | –
Cc1nc(C)c2c(n1)N(Cc1ccc(-c3ccccc3-c3nnn[nH]3)cc1)C(=O)CC2 | 7.17 | – | –
CCOCn1c(Cc2ccccc2)c(C(C)C)c(=O)[nH]c1=O | 28.6 | – | –
CCCN(CC)C(CC)C(=O)Nc1c(C)cccc1C (stereo not drawn) | 15.9 | – | –
NC(=O)c1cnn([C@H]2O[C@@H](CO)[C@@H](O)[C@@H]2O)n1 | 5 | – | –
Cc1ccc(NC(=O)C2CCCN(C(=O)c3c(C)cccc3F)[C@H]2c2ccc(NC3CCCC3)cc2)cc1C(F)(F)F (stereo partly drawn) | 4.53 | 97.6 | 5.75
C[C@@H]1COc2c(N3CCN(C)CC3)c(F)cc3c(=O)c(C(=O)O)cn1c23 | 2.58 | – | –

Compound | clearance [mL/min/kg] | half-life [h] | Vd [L/kg]
O[P+](O)(O)C(Cl)(Cl)[P+](O)(O)O | 2.2 | – | –
C[C@@H]1CCC[C@@H](C)N1CCC[C@@](O)(c1ccccc1)c1ccccn1 | 2.34 | – | –
CC(=O)O[C@H](CC(=O)[O-])C[N+](C)(C)C | 1.45 | – | –
CCCCC1(CCCC)CS(=O)(=O)c2ccc(N(C)C)cc2[C@@H](c2ccc(OCc3ccc(C[N+]45CCN(CC4)CC5)cc3)cc2)[C@H]1O | – | 1.6 | –
O=[P@@]1(N(CCCl)CCCl)NCCCO1 | 2.54 | – | –
CC(C)(C)NC[C@@H](O)COc1nsnc1N1CCOCC1 | 8.1 | – | –
CCOC(=O)C(Cc1ccc(F)cc1)NC(=O)C(N)Cc1ccc(N(CCCl)CCCl)cc1 (stereo not drawn) | 192 | 0.04 | 0.58
CC(C)N(CC[C@@](C(N)=O)(c1ccccc1)c1ccccn1)C(C)C | 2.7 | – | –
Cc1ccc(-c2cc(C(F)(F)F)nn2-c2ccc(S(N)(=O)=O)cc2)cc1 | 7.59 | – | –
Fc1ccc([C@H]2CCNC[C@@H]2COc2ccc3c(c2)OCO3)cc1 | 6.8 | – | –
CC(C)Oc1ccc(-c2nn([C@@H](C)c3oc4ccc(F)cc4c(=O)c3-c3cccc(F)c3)c3ncnc(N)c23)cc1F | 4.31 | 91 | 5.2
CCN(CC)CC#CCOC(=O)[C@](O)(c1ccccc1)C1CCCCC1 | 8.1 | – | –
O=C1Nc2ccc(Cl)cc2[C@@](C#CC2CC2)(C(F)(F)F)O1 | 3.1 | – | –
CCCCCCCN(CC)CCC[C@@H](O)c1ccc(NS(C)(=O)=O)cc1 | 29 | – | –
C[C@H](CN1CC(=O)NC(=O)C1)N1CC(=O)NC(=O)C1 | 4.42 | – | –
O[C@@](CCN1CCCC1)(c1ccccc1)C1CCCCC1 | 0.97 | – | –
CCOCCn1c(N2CCCN(C)CC2)nc2ccccc21 | 12.5 | – | –
CNS(=O)(=O)CCC1CCC2[N]CC(C3CCN(C)CC3)C2C1 (stereo not drawn) | 6.35 | – | –
O=c1[nH]c2ccccc2n1C1CCN(CCCC(c2ccc(F)cc2)c2ccc(F)cc2)CC1 | 4.1 | – | –
COC(=O)C1[C@H](OC(=O)c2ccccc2)CC2CC[C@@H]1N2C (stereo partly drawn) | 32 | – | –
CCC1=C(C)CN(C(=O)NCCc2ccc(S(=O)(=O)NC(=O)NC3CCC(C)CC3)cc2)C1=O (stereo not drawn) | 0.76 | – | –
COc1cc(Cc2cnc(N)nc2N)cc(OC)c1Br | 0.6 | – | –

Same assay, conditions: human; plasma

Compound | fraction unbound
CNCc1cc(-c2ccccc2F)n(S(=O)(=O)c2cccnc2)c1 | 0.14
C[C@@H]1[C@H](c2c(F)ccc(F)c2F)CC(NC(=O)c2cnc3c(c2)C[C@@]2(C3)C(=O)Nc3ncccc32)C(=O)N1CC(F)(F)F (stereo partly drawn) | 0.05
C[C@]12CC[C@@H]3c4ccc(O)cc4CC[C@H]3[C@@H]1[C@@H](O)[C@@H](O)[C@@H]2O | 0.52
COc1cc2nccc(Oc3ccc(NC(=O)Nc4cc(C)on4)c(Cl)c3)c2cc1OC | 0.01
NC(=O)c1ccc2c(c1O)[C@]13CCN(CC4CC4)[C@H](C2)[C@]1(O)CCC(=O)C3 | 0.72
C1=C/COCc2cc(ccc2OCCN2CCCC2)Nc2nccc(n2)-c2cccc(c2)COC/1 | 0.01
[2H]C([2H])([2H])NC(=O)c1nnc(NC(=O)C2CC2)cc1Nc1cccc(-c2ncn(C)n2)c1OC | 0.14
CSc1ccc(OCc2ncc([N+](=O)[O-])n2C)cc1 | 0.02
Cc1ccc(NC(=O)C2CCCN(C(=O)c3c(C)cccc3F)[C@H]2c2ccc(NC3CCCC3)cc2)cc1C(F)(F)F (stereo partly drawn) | 0.01
CCCCC1(CCCC)CS(=O)(=O)c2ccc(N(C)C)cc2[C@@H](c2ccc(OCc3ccc(C[N+]45CCN(CC4)CC5)cc3)cc2)[C@H]1O | 0.09
CC(C)Oc1ccc(-c2nn([C@@H](C)c3oc4ccc(F)cc4c(=O)c3-c3cccc(F)c3)c3ncnc(N)c23)cc1F | 0.01
